Among the data in US10463651B2, “3-(1H-pyrrolo[3,2-C]pyridin-2-YL)-1H-indazoles and therapeutic uses thereof” (Samumed, LLC, priority 2015, dated 2019) are EC50 and inhibition values, retold here.

As usually defined, the EC50 is the midpoint of the concentration-response curve. Read a high EC50 as weaker potency. The term inhibition denotes the relative decrease from the control value, in per cent.

What all share (format): cell-based
One test deals with IL-6 (THP-1 cells). In words: IL-6 inhibition in LPS-stimulated THP-1 cells (HTRF). Conditions: Homo sapiens; for EC50: IL6 by HTRF, THP-1 cells, 500 ng/mL LPS, 22 hours; for inhibition at 10 µM: THP-1, read-out: percent inhibition at 10 M. The protocol: THP-1 cells were cultured in basal media with 1% FBS for 24 hours before the start of the assay. […] THP-1 cells were plated at 5000 cells/well in the 384-well plates and incubated at 37° C. for 2 h. 500 ng/mL of LPS was added after 2 hours and cells were incubated for another 22 hours at 37° C. Plates were spun in a centrifuge for 1 minute at […] and a mixture of anti-IL6 XL665, and anti-IL6 Cryptate diluted in reconstitution buffer (Cisbio Inc.) was added to each well. Following incubation for 3 hrs at room temperature, Homogeneous Time-Resolved Fluorescence (HTRF) was measured using the Envision (Perkin Elmer) at 665 nm and […]. The ratio of fluorescence at 665 nm to 620 nm was used as a readout for IL6 quantification. All samples were processed in duplicate. Readings were normalized to DMSO treated cells and normalized activities were utilized for EC50 calculations using the dose-response log (inhibitor) vs. response-variable slope (four parameters) nonlinear regression feature available in GraphPad Prism 5.0 (or Dotmatics).

Another test deals with SW480 colon cancer cells. Nature of the test: Cell viability assay (CellTiter-Blue). Conditions: Homo sapiens; for EC50: 96 h, SW480 cell viability, four days, CellTiter-Blue; for inhibition at 10 µM: SW480, 96 h, read-out: percent inhibition at 10 μM. As for the experimental part: Representative compounds were screened using the following assay procedure to assess the effect on cell viability as described below.
Approximately 2×10^3 SW480 colon cancer cells were seeded into each well and allowed to incubate in the presence or absence of compound for four days at 37° C./5% CO2. Eight replicates of DMSO-treated cells served as controls and cells treated with compound were performed in duplicate.
After incubation, 20 μL of CellTiter-Blue (Promega) was added to each well allowed to incubate for approximately 3 hours. This reagent was a buffered solution which contains resazurin, metabolically active cells were able to reduce rezarurin (blue) into resorufin (pink) which was highly fluorescent. This measured fluorescence was used as a readout for cell viability.
(In general: Resazurin is reduced to fluorescent resorufin, in cell work by metabolically active cells.)

The test system of test [1] is primary human fibroblasts derived from IPF patients (LL29 cells) treated with TGF-β1. Nature of the test: Inhibition of the fibrotic process (αSMA staining) in TGF-β1-treated fibroblasts. Conditions: Fibroblast, 96 h; for EC50: % αSMA-positive LL29 cells, TGF-β1 20 ng/mL, 4 days; for inhibition at 10 µM: read-out: percent inhibition at 10 μM. The protocol:
Representative compounds were screened using primary human fibroblasts (derived from IPF patients) treated with TGF-β1 to determine their ability to inhibit the fibrotic process.
LL29 cells are plated at 1,500 cells/well in 80 μL/well F12 medium supplemented with 1% Fetal Bovine Serum. […] Wells treated with TGF-P1 and containing DMSO were used as controls. […] Following incubation for 4 days, SYTOX green nucleic acid stain (Life Technologies [Thermo Fisher Scientific]) was added to the wells at a final concentration of 1 μM and incubated at room temperature for 30 min.

Test [2] has as its system Wnt activity (Sp5-Luc reporter, SW480 colon carcinoma cells). Nature of the test: Screening assay for Wnt activity (Sp5-Luc reporter gene assay in SW480 cells). Conditions: Homo sapiens; for EC50: Sp5-Luc reporter, SW480 cells, incubated overnight; for inhibition at 10 µM: SW480, read-out: percent inhibition at 10 μM. An excerpt:
The screening assay for Wnt activity is described as follows. Reporter cell lines can be generated by stably transducing cancer cell lines (e.g., colon cancer) or primary cells (e.g., IEC-6 intestinal cells) with a lentiviral construct that includes a Wnt-responsive promoter driving expression of the firefly luciferase gene.
SW480 colon carcinoma cells were transduced with a lentiviral vector expressing luciferase with a human Sp5 promoter consisting of a sequence of eight TCF/LEF binding sites. SW480 cells stably expressing the Sp5-Luc reporter gene and a hygromycin resistance gene were selected by treatment with 150 μg/mL of hygromycin for 7 days. These stably transduced SW480 cells were expanded in cell culture and used for all further screening activities. […] For Sp5-Luc reporter gene assays, the cells were plated at 4,000 cells/well in 384-well plates with medium containing 1% fetal bovine serum and incubated overnight at 37° C. and 5% CO2. Following incubation, 20 μl of BrightGlo luminescence reagent (Promega) was added to each well of the 384-well assay plates. The plates were placed on an orbital shaker for 2 min and then luminescence was quantified using the Envision (Perkin Elmer) plate reader. Readings were normalized to DMSO only treated cells, and normalized activities were utilized for EC50 calculations using the dose-response log (inhibitor) vs. response-variable slope (four parameters) nonlinear regression feature available in GraphPad Prism 5.0 (or Dotmatics).
In general terms: A reporter such as luciferase makes a cellular process visible.

With `O=C(Cc1ccccc1)Nc1cncc(-c2ccc3[nH]nc(-c4cc5c(-c6cccc(F)c6)nccc5[nH]4)c3c2)c1` [Compound 10, N-(5-(3-(4-(3-Fluorophenyl)-1H-pyrrolo[3,2-c]pyridin-2-yl)-1H-indazol-5-yl)pyridin-3-yl)-2-phenylacetamide], the EC50 was found to be 660 nM with IL-6 (THP-1 cells), 1020 nM with SW480 colon cancer cells, 630 nM in test [1] and 875 nM in test [2].

Turning to `Fc1cccc(-c2nccc3[nH]c(-c4n[nH]c5ccc(-c6ccncc6)cc45)cc23)c1` [Compound 18, 3-(4-(3-Fluorophenyl)-1H-pyrrolo[3,2-c]pyridin-2-yl)-5-(pyridin-4-yl)-1H-indazole], the inhibition at 10 µM in the test on IL-6 (THP-1 cells) came to 8.4%; in test [2] it was 58.3%. Besides, the concentration for a half-maximal effect (EC50) with IL-6 (THP-1 cells) was above 10000 nM; in the test with SW480 colon cancer cells it was 1860 nM; in test [1] it was 4350 nM; in test [2], above 10000 nM.

Turning to `O=C(Nc1cncc(-c2ccc3[nH]nc(-c4cc5c(-c6cccc(F)c6)nccc5[nH]4)c3c2)c1)C1CCCCC1` [Compound 23, N-(5-(3-(4-(3-Fluorophenyl)-1H-pyrrolo[3,2-c]pyridin-2-yl)-1H-indazol-5-yl)pyridin-3-yl)cyclohexanecarboxamide], the EC50 with IL-6 (THP-1 cells) is 108 nM; in the test with SW480 colon cancer cells, 1140 nM; in test [1], 1460 nM; in test [2], 1400 nM.

As to `Fc1cccc(-c2nccc3[nH]c(-c4n[nH]c5ccc(-c6ccccn6)cc45)cc23)c1` [Compound 28, 3-(4-(3-Fluorophenyl)-1H-pyrrolo[3,2-c]pyridin-2-yl)-5-(pyridin-2-yl)-1H-indazole], the EC50 with IL-6 (THP-1 cells) was found to be 3090 nM; with SW480 colon cancer cells it was 576 nM; in test [1], 421 nM; in test [2] it was 1080 nM.

With `CC(C)CC(=O)Nc1cncc(-c2ccc3[nH]nc(-c4cc5c(-c6ccc(F)cc6)nccc5[nH]4)c3c2)c1` [Compound 30, N-(5-(3-(4-(4-Fluorophenyl)-1H-pyrrolo[3,2-c]pyridin-2-yl)-1H-indazol-5-yl)pyridin-3-yl)-3-methylbutanamide], the EC50 with IL-6 (THP-1 cells) was 1300 nM; in the test with SW480 colon cancer cells, 439 nM; in test [1], 329 nM; in test [2], 442 nM.

Regarding `Cc1ccncc1-c1ccc2[nH]nc(-c3cc4c(-c5ccc(F)cc5)nccc4[nH]3)c2c1` [Compound 33, 3-(4-(4-Fluorophenyl)-1H-pyrrolo[3,2-c]pyridin-2-yl)-5-(4-methylpyridin-3-yl)-1H-indazole], in the test on IL-6 (THP-1 cells), the inhibition at 10 µM was 36.8%. The EC50 is above 10000 nM with IL-6 (THP-1 cells), 3850 nM in the test on SW480 colon cancer cells, 2000 nM in test [1] and 3720 nM in test [2].

As to `CC(C)(C)C(=O)Nc1cncc(-c2ccc3[nH]nc(-c4cc5c(-c6ccc(F)cc6)nccc5[nH]4)c3c2)c1` [Compound 36, N-(5-(3-(4-(4-Fluorophenyl)-1H-pyrrolo[3,2-c]pyridin-2-yl)-1H-indazol-5-yl)pyridin-3-yl)pivalamide], the 50% effective concentration (EC50) with IL-6 (THP-1 cells) was 207 nM; in the test on SW480 colon cancer cells, 659 nM; in test [1] it was 745 nM; in test [2] it was 742 nM.

With `O=C(Nc1cncc(-c2ccc3[nH]nc(-c4cc5c(-c6ccc(F)cc6)nccc5[nH]4)c3c2)c1)c1ccccc1` [Compound 39, N-(5-(3-(4-(4-Fluorophenyl)-1H-pyrrolo[3,2-c]pyridin-2-yl)-1H-indazol-5-yl)pyridin-3-yl)benzamide], the EC50 in the test on IL-6 (THP-1 cells) was found to be 3460 nM; in the test with SW480 colon cancer cells, 540 nM; in test [1], 501 nM; in test [2] it was 1610 nM.

Regarding `CC(C)Nc1cncc(-c2ccc3[nH]nc(-c4cc5c(-c6ccc(F)cc6)nccc5[nH]4)c3c2)c1` [Compound 40, 5-(3-(4-(4-Fluorophenyl)-1H-pyrrolo[3,2-c]pyridin-2-yl)-1H-indazol-5-yl)-N-isopropylpyridin-3-amine], the EC50 in the test with IL-6 (THP-1 cells) was 545 nM; in the test on SW480 colon cancer cells, 779 nM; in test [1] it was 549 nM; in test [2], 539 nM.

`CC(C)(C)CC(=O)Nc1cncc(-c2ccc3[nH]nc(-c4cc5c(-c6ccc(F)cc6)nccc5[nH]4)c3c2)c1` [Compound 44, N-(5-(3-(4-(4-Fluorophenyl)-1H-pyrrolo[3,2-c]pyridin-2-yl)-1H-indazol-5-yl)pyridin-3-yl)-3,3-dimethylbutanamide]: the inhibition at 10 µM in the test on IL-6 (THP-1 cells) stood at 35%; in the test with SW480 colon cancer cells it was 7.7%; in test [1] it was 0%; in test [2], 19.5%. In addition, the EC50 (in the test on IL-6 (THP-1 cells); in the test on SW480 colon cancer cells; in test [1]; in test [2]) was above 10000 nM each time.

For the compound `CC(C)(C)CC(=O)Nc1cncc(-c2ccc3[nH]nc(-c4cc5c(-c6ccccc6F)nccc5[nH]4)c3c2)c1` [Compound 72, N-(5-(3-(4-(2-Fluorophenyl)-1H-pyrrolo[3,2-c]pyridin-2-yl)-1H-indazol-5-yl)pyridin-3-yl)-3,3-dimethylbutanamide], the EC50 in the test with IL-6 (THP-1 cells) is 489 nM; with SW480 colon cancer cells, above 10000 nM; in test [1] it was above 10000 nM; in test [2], 445 nM. Besides, the values for the inhibition at 10 µM (with SW480 colon cancer cells; in test [1]) were 9.6% and 0%, respectively.

Regarding `Fc1ccccc1-c1nccc2[nH]c(-c3n[nH]c4ccc(-c5ccccn5)cc34)cc12` [Compound 84, 3-(4-(2-Fluorophenyl)-1H-pyrrolo[3,2-c]pyridin-2-yl)-5-(pyridin-2-yl)-1H-indazole], the EC50 is 1960 nM with IL-6 (THP-1 cells), 1020 nM with SW480 colon cancer cells, 659 nM in test [1] and 1220 nM in test [2].

With `CN(C)c1cncc(-c2ccc3[nH]nc(-c4cc5c(-c6cccnc6)nccc5[nH]4)c3c2)c1` [Compound 91, N,N-Dimethyl-5-(3-(4-(pyridin-3-yl)-1H-pyrrolo[3,2-c]pyridin-2-yl)-1H-indazol-5-yl)pyridin-3-amine], the concentration giving a half-maximal response (EC50) in the test on IL-6 (THP-1 cells) is 331 nM; with SW480 colon cancer cells, 8080 nM; in test [1], above 10000 nM; in test [2], above 10000 nM. Besides, the inhibition at 10 µM was 46.9% in test [1] and 35.7% in test [2].

Take `c1cc(-c2ccc3[nH]nc(-c4cc5c(N6CCCCC6)nccc5[nH]4)c3c2)ccn1` [Compound 186, 3-(4-(Piperidin-1-yl)-1H-pyrrolo[3,2-c]pyridin-2-yl)-5-(pyridin-4-yl)-1H-indazole]: the inhibition at 10 µM in the test with IL-6 (THP-1 cells) turned out to be 53.9%. Besides, the EC50 with IL-6 (THP-1 cells) is above 10000 nM; with SW480 colon cancer cells, 1020 nM; in test [1] it was 832 nM; in test [2], 2100 nM.

Turning to `CC(C)CC(=O)Nc1cncc(-c2ccc3[nH]nc(-c4cc5c(N6CCN(C)CC6)nccc5[nH]4)c3c2)c1` [Compound 226, 3-Methyl-N-(5-(3-(4-(4-methylpiperazin-1-yl)-1H-pyrrolo[3,2-c]pyridin-2-yl)-1H-indazol-5-yl)pyridin-3-yl)butanamide], the EC50 was 1420 nM with IL-6 (THP-1 cells), 2870 nM in the test on SW480 colon cancer cells, 2960 nM in test [1] and 1900 nM in test [2].
